In patent US20240287138A1, “CYCLIC PEPTIDES FOR INHIBITING TNF RECEPTOR 1 ACTIVITY” (Merck Sharp & Dohme LLC, priority 2023, published 2024):
Numbered stars: 1 amine (or outer) side, 2 acyl side, 3 side chain; on linkers, the order of the positions; unused ones are H or OH. Bridge positions count the residues as written; N and C are the ends. Square brackets hold non-standard residues; d marks the D form. Peptide text beside a SMILES is read from it. * marks the point of attachment. Trp(βS-Me,7-OMe) = COc1cccc2c([C@H](C)[C@H](N)C(=O)O)c[nH]c12; X24 = O=C(O)c1ccc([C@@H](O)[C@H](N[*:1])C(=O)[*:2])cc1; Achc(cis-1,4) = O=C([C@H]1CC[C@@H](N[*:1])CC1)[*:2]; Trp(7-CN) = N#Cc1cccc2c(C[C@H](N)C(=O)O)c[nH]c12; Trp(7-Cl) = N[C@@H](Cc1c[nH]c2c(Cl)cccc12)C(=O)O; Phe(3-CONH2) = NC(=O)c1cccc(C[C@H](N)C(=O)O)c1; Phe(4-CONH2) = NC(=O)c1ccc(C[C@H](N)C(=O)O)cc1; Phe(4-COOH) = N[C@@H](Cc1ccc(C(=O)O)cc1)C(=O)O; Trp(7-aza) = N[C@@H](Cc1c[nH]c2ncccc12)C(=O)O; Phe(4-CH2NH2) = NCc1ccc(C[C@H](N)C(=O)O)cc1; Pip(5R-OH) = O=C(O)[C@@H]1CC[C@@H](O)CN1; X1 = O=C([C@@H]1CC[C@H](N[*:1])C1)[*:2]; 2Nal = N[C@@H](Cc1ccc2ccccc2c1)C(=O)O; Pip(4-aza) = O=C(O)[C@@H]1CNCCN1; hPhe = N[C@@H](CCc1ccccc1)C(=O)O; 3Pal = N[C@@H](Cc1cccnc1)C(=O)O; 4Pal = N[C@@H](Cc1ccncc1)C(=O)O; NMeE = CN[C@@H](CCC(=O)O)C(=O)O; dHyp = O=C(O)[C@H]1C[C@H](O)CN1; Ahp(2) = CCCCC[C@H](N)C(=O)O; αMeS = C[C@](N)(CO)C(=O)O; Nle = CCCC[C@H](N)C(=O)O; Dap = NC[C@H](N)C(=O)O; Ethyl(2-NH2) = NCC*; Sar = CNCC(=O)O

Assays:
[1] = biological target: T1, human TNFR1 extracellular domain (ECD) protein (Homo sapiens, UniProt P19438); test: SPR binding affinity to captured human TNFR1 ECD
T1 construct: HRV 3C protease cleavage site (C); 6His (C, cleaved yes); made in house; host or cells: Sf21 insect cells (baculovirus), secreted
T1 sequence (P19438 30-211): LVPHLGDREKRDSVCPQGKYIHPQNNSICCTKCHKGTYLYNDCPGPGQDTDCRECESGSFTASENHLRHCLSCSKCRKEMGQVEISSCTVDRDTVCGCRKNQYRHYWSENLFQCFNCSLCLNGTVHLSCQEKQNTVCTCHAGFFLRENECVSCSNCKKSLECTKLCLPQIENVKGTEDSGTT
Procedure, shortened: (§1)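 Biotinylated human TNFR1 or TNFR2 ECD (C-terminal Avi-tag, Sf21-expressed) captured on a regenerable streptavidin chip; peptide analytes flowed in 10 mM HEPES pH 7.4, 150 mM NaCl, 3 mM EDTA, 0.05% P20, 2% DMSO. kon and koff measured; affinity calculated from the rate constants.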

human TNFR2 ECD protein = biological target: T2, human TNFR2 ECD protein (Homo sapiens, UniProt P20333); test: SPR off-target binding (selectivity) to human TNFR2 ECD
T2 construct: HRV 3C protease cleavage site (C); 6His (C, cleaved yes); made in house; host or cells: Sf21 insect cells (baculovirus), secreted
T2 sequence (P20333 23-257): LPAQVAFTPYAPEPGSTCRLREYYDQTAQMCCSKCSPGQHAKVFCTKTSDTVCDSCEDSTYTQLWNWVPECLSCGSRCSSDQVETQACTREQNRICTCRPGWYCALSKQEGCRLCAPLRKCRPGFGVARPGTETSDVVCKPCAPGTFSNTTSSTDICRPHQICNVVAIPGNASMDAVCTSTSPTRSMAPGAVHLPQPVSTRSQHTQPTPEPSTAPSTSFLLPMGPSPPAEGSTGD
Procedure, shortened: as §1

[2] = biological target: T3, TNFα-induced NF-κB signal transduction pathway (TNFR1 signaling) in THP-1 cells (Homo sapiens, UniProt P19438); test: THP-1 Lucia NF-κB reporter cell assay, inhibition of TNFα-induced NF-κB signaling; assay type: cell-based; conditions: THP-1 NF-κB Lucia reporter cells, 10 ng/mL TNFα, 16-18 h, secreted luciferase; read-out: THP-1 IC50
T3 sequence (P19438 30-455): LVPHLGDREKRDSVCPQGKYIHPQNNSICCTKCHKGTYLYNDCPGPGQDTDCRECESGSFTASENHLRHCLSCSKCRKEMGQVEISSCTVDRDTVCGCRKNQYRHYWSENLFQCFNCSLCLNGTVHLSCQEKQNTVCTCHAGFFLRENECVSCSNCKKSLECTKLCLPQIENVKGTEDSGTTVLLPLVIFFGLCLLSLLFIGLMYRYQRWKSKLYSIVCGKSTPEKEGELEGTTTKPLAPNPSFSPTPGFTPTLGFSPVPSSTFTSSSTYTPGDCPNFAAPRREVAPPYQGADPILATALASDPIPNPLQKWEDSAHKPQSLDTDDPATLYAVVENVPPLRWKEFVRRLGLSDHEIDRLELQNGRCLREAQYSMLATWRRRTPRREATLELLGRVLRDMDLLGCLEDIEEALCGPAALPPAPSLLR
Procedure, shortened: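 IC50 from a 4-parameter logistic fit of secreted luciferase luminescence (QUANTI-Luc), normalised to min/max controls. Reporter THP-1 cells were exposed to peptides for 1 h at 37 °C before 10 ng/mL TNFα (final) was added overnight (16–18 h).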

Compound | Kd [1] | Kd (human TNFR2 ECD protein) | IC50 [2]
CCCC[C@@H]1NC(=O)[C@@H]2CC[C@@H](C2)NC(=O)[C@H]([C@@H](C)c2c[nH]c3c(OC)cccc23)NC(=O)CN(C)C(=O)[C@H]([C@H](O)c2ccc(C(=O)O)cc2)NC(=O)[C@H](Cc2ccc(C(N)=O)cc2)NC(=O)[C@](C)(CO)NC(=O)[C@H](Cc2c[nH]c3c(Cl)cccc23)NC(=O)[C@H](Cc2ccncc2)NC(=O)[C@H](CC(N)=O)NC(=O)[C@H]2C[C@H](O)CN2C(=O)[C@H](Cc2c[nH]c3ccccc23)NC(=O)[C@@H]2CC[C@@H](O)CN2C(=O)[C@H](Cc2ccncc2)NC1=O [SEQ ID NO. 188] (cyclo([4Pal][Trp(7-Cl)][αMeS][Phe(4-CONH2)][X24][Sar][Trp(βS-Me,7-OMe)][X1][Nle][4Pal][Pip(5R-OH)]W[dHyp]N)) | 0.03 nM | > 1000 nM | 0.8 nM
CN1CC(=O)N[C@@H](Cc2c[nH]c3ccccc23)C(=O)N[C@H](C(N)=O)CSCC(=O)N[C@@H](CCc2ccccc2)C(=O)N[C@@H](Cc2ccncc2)C(=O)N[C@@H](CN)C(=O)N[C@@H](Cc2c[nH]c3ccccc23)C(=O)N2CCC[C@@H]2C(=O)N[C@@H](CC(N)=O)C(=O)N[C@@H](Cc2ccncc2)C(=O)N[C@@H](Cc2ccc3ccccc3c2)C(=O)N[C@@](C)(CO)C(=O)N[C@@H](Cc2ccc(C(=O)O)cc2)C(=O)N[C@@H](Cc2cccnc2)C1=O [SEQ ID NO. 233] ({CH2CO}-[hPhe][4Pal][Dap]W[dP]N[4Pal][2Nal][αMeS][Phe(4-COOH)][3Pal][Sar]WC-NH2; thioether N-14) | 0.78 nM | > 1000 nM | 14.2 nM
CCCC[C@@H]1NC(=O)[C@H]2CC[C@H](CC2)NC(=O)[C@H]([C@@H](C)c2c[nH]c3c(OC)cccc23)NC(=O)CN(C)C(=O)[C@H](Cc2ccc(O)cc2)NC(=O)[C@H](Cc2ccc(C(=O)O)cc2)NC(=O)[C@](C)(CO)NC(=O)[C@H](Cc2c[nH]c3c(Cl)cccc23)NC(=O)[C@H](Cc2ccncc2)NC(=O)[C@H](CC(N)=O)NC(=O)[C@H](CCC(=O)O)N(C)C(=O)[C@H](Cc2c[nH]c3ccccc23)NC(=O)[C@H](CO)NC(=O)[C@H](Cc2ccc(CN)cc2)NC1=O [SEQ ID NO. 244] (cyclo([4Pal][Trp(7-Cl)][αMeS][Phe(4-COOH)]Y[Sar][Trp(βS-Me,7-OMe)][Achc(cis-1,4)][Nle][Phe(4-CH2NH2)]SW[NMeE]N)) | 0.09 nM | > 1000 nM | 4.5 nM
CCCCC[C@@H]1NC(=O)[C@@H]2CC[C@@H](C2)NC(=O)[C@H]([C@@H](C)c2c[nH]c3c(OC)cccc23)NC(=O)CN(C)C(=O)[C@H](Cc2cccc(C(N)=O)c2)NC(=O)[C@H](Cc2ccc(C(N)=O)cc2)NC(=O)[C@](C)(CO)NC(=O)[C@H](Cc2c[nH]c3c(C#N)cccc23)NC(=O)[C@H](Cc2ccncc2)NC(=O)[C@H](CC(N)=O)NC(=O)[C@H]2C[C@H](O)CN2C(=O)[C@H](Cc2c[nH]c3ccccc23)NC(=O)[C@@H]2CNCCN2C(=O)[C@H](Cc2ccncc2)NC1=O [SEQ ID NO. 174] (cyclo([4Pal][Trp(7-CN)][αMeS][Phe(4-CONH2)][Phe(3-CONH2)][Sar][Trp(βS-Me,7-OMe)][X1][Ahp(2)][4Pal][Pip(4-aza)]W[dHyp]N)) | 0.01 nM | > 1000 nM | 0.7 nM
COc1cccc2c([C@H](C)[C@@H]3NC(=O)CN(C)C(=O)[C@H](Cc4ccc(C(=O)O)cc4)NC(=O)[C@H](Cc4ccc(C(N)=O)cc4)NC(=O)[C@](C)(CO)NC(=O)[C@H](Cc4c[nH]c5c(Cl)cccc45)NC(=O)[C@H](Cc4ccc(C(=O)O)cc4)NC(=O)[C@H](CC(N)=O)NC(=O)[C@H]4C[C@H](O)CN4C(=O)[C@H](Cc4c[nH]c5ncccc45)NC(=O)[C@@H]4CC[C@@H](O)CN4C(=O)[C@H](Cc4ccncc4)NC(=O)[C@H](COCCN)NC(=O)[C@@H]4CC[C@@H](C4)NC3=O)c[nH]c12 [SEQ ID NO. 148] (cyclo([4Pal][Pip(5R-OH)][Trp(7-aza)][dHyp]N[Phe(4-COOH)][Trp(7-Cl)][αMeS][Phe(4-CONH2)][Phe(4-COOH)][Sar][Trp(βS-Me,7-OMe)][X1]S(Ethyl(2-NH2)))) | 1.1 nM | > 1000 nM | 2.8 nM
